Test results published in article PMC6259456, “Inhibitory Effects of Phylligenin and Quebrachitol Isolated from Mitrephora vulpina on Platelet Activating Factor Receptor Binding and Platelet Aggregation” (Molecules, 2010).
Like-named read-outs stand apart in the source and are kept apart here.

Target: T1, platelet activating factor (PAF) receptor (Oryctolagus cuniculus, UniProt G1TEI7)
T1 construct: gene PTAFR; native receptor on washed rabbit platelets
Experiment: 3H-PAF radioligand displacement on washed rabbit platelets
Assay type: cell-based

T1 sequence (G1TEI7 1-342): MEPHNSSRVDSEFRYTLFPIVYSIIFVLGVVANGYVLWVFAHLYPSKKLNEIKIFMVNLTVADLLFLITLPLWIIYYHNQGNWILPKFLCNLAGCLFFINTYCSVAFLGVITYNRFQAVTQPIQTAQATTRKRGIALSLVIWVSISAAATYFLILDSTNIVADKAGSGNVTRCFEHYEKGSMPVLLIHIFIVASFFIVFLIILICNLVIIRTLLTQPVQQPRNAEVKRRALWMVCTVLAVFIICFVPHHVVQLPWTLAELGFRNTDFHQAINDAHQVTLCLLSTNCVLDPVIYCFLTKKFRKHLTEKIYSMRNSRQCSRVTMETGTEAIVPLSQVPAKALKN

Row | Structure (SMILES) | IC50 (read-out: IC50) | IC50
1 | C[C@@H]1CC[C@H]2C(C)(C)[C@H]3C[C@@]12CC[C@@]3(C)O [cedrol, reference compound] | 10.6 µM | 
2 | COc1cc([C@H]2OC[C@H]3[C@@H]2CO[C@H]3c2ccc(OC)c(OC)c2)ccc1O [phylligenin] |  | 13.1 µM
3 | CO[C@H]1[C@H](O)[C@@H](O)[C@H](O)[C@H](O)[C@H]1O [quebrachitol, 2-O-methyl-L-chiro-inositol] | 42.2 µM | 
